Laboratory results from ChEMBL document CHEMBL3632553, “New fluorinated agonists for targeting the sphingosin-1-phosphate receptor 1 (S1P(1))” (2015).
Active and inactive are the calls of the source. The rule behind the calls is not given here.

Legend:
[1] = molecular target: Sphingosine 1-phosphate receptor 1 (Homo sapiens) (UniProt P21453); assay: Agonist activity at human sphingosin-1-phosphate receptor 1 expressed in CHO cells assessed as phosphorylation status of p44/42 MAPK after 5 mins by Western blotting; type: cell-based
[2] = molecular target: Sphingosine 1-phosphate receptor 1 (Homo sapiens) (UniProt P21453); assay: Agonist activity at human sphingosin-1-phosphate receptor 1 expressed in CHO cells assessed as phosphorylation status of p44/42 MAPK after 10 mins by Western blotting; type: cell-based
[3] = molecular target: Sphingosine 1-phosphate receptor 1 (Homo sapiens) (UniProt P21453); assay: Agonist activity at human sphingosin-1-phosphate receptor 1 expressed in CHO cells assessed as phosphorylation status of p44/42 MAPK after 2.5 mins by Western blotting; type: cell-based
Mus musculus [4] = assay: Immunosuppressive activity in mouse assessed as reduction of WBC level in peripheral blood assessed per 10^6 cells at 1.25 mg/kg, ip after 24 hrs by flow cytometry (reference value: 8.94 +/- 0.59 ml); type: functional
Mus musculus [5] = assay: Immunosuppressive activity in mouse assessed as reduction of CD4+ level in peripheral blood assessed per 10^6 cells at 1.25 mg/kg, ip after 24 hrs by flow cytometry (reference value: 0.73 +/- 0.07 ml); type: functional
Mus musculus [6] = assay: Immunosuppressive activity in mouse assessed as reduction of B-cells level in peripheral blood assessed per 10^6 cells at 1.25 mg/kg, ip after 24 hrs by flow cytometry (reference value: 4.72 +/- 0.53 ml); type: functional
Mus musculus [7] = assay: Immunosuppressive activity in mouse assessed as reduction of CD8+ level in peripheral blood assessed per 10^6 cells at 1.25 mg/kg, ip after 24 hrs by flow cytometry (reference value: 0.48 +/- 0.05 ml); type: functional
Mus musculus [8] = assay: Immunosuppressive activity in mouse assessed as induction of lymphopenia at 1.25 mg/kg, ip after 24 hrs by flow cytometry; type: functional

Chain of Sphingosine 1-phosphate receptor 1 (Homo sapiens) (P21453 whole entry): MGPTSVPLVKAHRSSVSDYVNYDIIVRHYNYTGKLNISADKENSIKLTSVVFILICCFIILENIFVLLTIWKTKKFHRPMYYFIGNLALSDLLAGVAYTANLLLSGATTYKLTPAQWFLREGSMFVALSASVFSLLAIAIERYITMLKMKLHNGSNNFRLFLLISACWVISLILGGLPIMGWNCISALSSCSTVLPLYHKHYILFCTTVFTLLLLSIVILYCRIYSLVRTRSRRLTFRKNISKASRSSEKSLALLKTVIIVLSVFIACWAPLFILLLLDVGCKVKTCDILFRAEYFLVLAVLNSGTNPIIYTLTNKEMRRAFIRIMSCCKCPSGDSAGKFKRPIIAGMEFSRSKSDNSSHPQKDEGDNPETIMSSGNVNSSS

| Structure (SMILES) | Activity [1] | Activity [2] | Activity [3] | cell count (Mus musculus [4]) | cell count (Mus musculus [5]) | cell count (Mus musculus [6]) | cell count (Mus musculus [7]) | Activity (Mus musculus [8]) [%] |
| --- | --- | --- | --- | --- | --- | --- | --- | --- |
| NC(CO)(CO)CCCCCCCCCCc1c(F)c(F)c(F)c(F)c1F | Active | Active | Active |  |  |  |  |  |
| NC(CO)(CO)CCCCCCCCCCc1ccc(C(F)(F)F)cc1 | Active | Active | Active |  |  |  |  |  |
| CCCCCCCCc1ccc(CCC(N)(CO)CO)cc1 [FINGOLIMOD] |  |  |  | 3.69 10^6 cells/mL | 0.02 10^6 cells/mL | 0.61 10^6 cells/mL | 0.04 10^6 cells/mL | 97 |

Now from value to compound, other results behind:

| Activity [1] | Activity [2] | Activity [3] | Structure (SMILES) | cell count (Mus musculus [4]) | cell count (Mus musculus [5]) | cell count (Mus musculus [6]) | cell count (Mus musculus [7]) | Activity (Mus musculus [8]) [%] |
| --- | --- | --- | --- | --- | --- | --- | --- | --- |
| Active | Active | Active | NC(CO)(CO)CCCCCCCCCCc1ccc(F)cc1 |  |  |  |  |  |
| Active | Active | Active | NC(CO)(CO)CCCCCCCCCCc1ccccc1 |  |  |  |  |  |
| Active | Active | Active | NC(CO)(CO)CCCCCCCCCCc1cccc(S(F)(F)(F)(F)F)c1 |  |  |  |  |  |
| Active | Active | Active | NC(CO)(CO)CCCCCCCCCCc1ccc(S(F)(F)(F)(F)F)cc1 |  |  |  |  |  |
| Active | Active | Active | NC(CO)(CO)CCCCCCCCCCCCCCC(F)F | 1.67 10^6 cells/mL | 0.03 10^6 cells/mL | 0.29 10^6 cells/mL | 0.04 10^6 cells/mL | 95 |
